The values below come from patent publication US20060063938A1, “Compounds to treat hiv infection and aids” (priority 2001, published 2006).

Where “and” joins values, the source holds several entries; their conditions need not be identical. Equal values may be shown once. Entries after “also recorded” stand apart in the source; their conditions may differ. Read-outs that look alike come from different tables or passages of the source. Some results are limits rather than exact numbers.

In series [1] the target is HIV-1 integrase (Human immunodeficiency virus type 1 group M subtype B, UniProt P04585). In words: In vitro HIV-1 integrase assay (3′-processing and strand transfer) with 21-mer U5 LTR oligonucleotide. Format: biochemical.
The test system of series [2] is HIV-1. Put plainly: microbe, parasite or virus in culture. Format: cell-based. Particulars: for IC50: read-out: 50% Inhibitory Conc. (IC50).
Series [3] has as its system replication competent HIV-1. In words: Inhibition of replication competent HIV-1 in H9 cells, p24 antigen ELISA. The format is cell-based. Particulars: 25 μM B compound, 15 days. The procedure: FIG. 6. Determination of inhibition of replication competent HIV-1 by B compound. HIV-1 infection was carried out in the presence of 25 μM B compound, 100 nM AZT, or in the absence of any drugs. Uninfected H9 culture was used as a negative control. […] Each time point of each culture was evaluated in duplicate.
Inhibition of replication competent HIV-1 by B compound was evaluated at 25 μM concentration. 293T cells were transfected with pNL4-3, a plasmid that encodes full HIV-1 genome. Virus harvested from the transfected cells was used to infect H9 target cells. […] In addition, H9 infected cells were cultured in the presence of 100 nM AZT as a control.
H9 T-lymphoid cells (ATCC) were maintained in the presence of RPMI 1640 Medium (Cellgro), 20% fetal calf serum (HyClone Laboratories), penicillin (50 U/ml; Gibco) and streptomycin (50 μg/ml; Gibco), 2 μg/ml Polybrene (Sigma). […] After 4 hours of infection, H9 cells were washed, resuspended in 2 ml of cell culture medium containing an appropriate drug and maintained in 35-mm-diameter dish. Cultures were fed every 3 days by removing 1 ml of cell culture suspension and replacing with equivalent amount of fresh medium containing an appropriate drug.

The test system of series [4] is HIV-1. Particulars: read-out: IC50 reported previously; Hazuda et al. 2000; cited from earlier work.
The subject of series [5] is 293T cells. In words: Cell proliferation inhibition (XTT) cell toxicity assay. Format: cell-based. The procedure:
To ensure that inhibition of luciferase activity in the presence of the compounds was indeed due to inhibition of HIV-1 infection and not due to the toxicity of these compounds to the target cells, we performed a cell toxicity assay in the presence of the same concentrations of compounds that were used for IC50 determination (FIG. 5).
Cell proliferation inhibition assay. The effects of inhibitors on cell toxicity were determined by using Cell Proliferation Kit II (XTT) (Roche Molecular Biochemicals). Target cells (293T) were plated at a density of 1×10^3 per well of 96-well plate. Twenty-four hours later cells were treated with an inhibitor for 36 hours. After inhibitor was removed, cells were incubated for additional 48 hours and then were stained with 50 μL of the XTT labeling mix per well (Roche Molecular Biochemicals). Spectrophotometrical absorbance of the samples was measured 4 hours after addition of the labeling mix at wavelengths of 450 nm with a reference point at 700 nm in a 96-well plate reader.
In general terms: Tetrazolium dyes change colour on reduction, which living cells bring about.

The mark [6] stands for this setting: 3′-processing step of integration reaction, read-out: IC50 3′-Processing.
[7] abbreviates: strand transfer step of integration reaction, read-out: IC50 Strand transfer.
The mark [8] stands for this setting: Human immunodeficiency virus 1, HEK-293T.

For orientation: IC50 means the midpoint of a concentration-inhibition curve. On to `O=C(C=C(O)c1nnn[nH]1)c1c[nH]c2ccc(F)cc12` [Compound P18, reference compound], for which the IC50 in series [1] (3′-processing step of integration reaction, listed as 9, read-out: IC50 3′-Processing) came to 79 µM; in series [1] (strand transfer step of integration reaction, listed as 9, read-out: IC50 Strand transfer), 1.8 µM. For the same compound, the “Luciferase Activity Relative to No Drug Control (Avg ± S.E.)” value in series [2] came out at 59 ± 13%.
Consider `[N-]=[N+]=NCc1cccc(C(=O)C=C(O)C(=O)O)c1` [Compound B, 4-(3-azidomethyl-phenyl)-2-hydroxy-4-oxo-but-2-enoic acid], for which the “HIV-1 replication (p24 antigen) in infected H9 culture” value in series [3] is “no significant amounts of HIV-1 replication was detected; also recorded: strongly inhibited replication competent HIV-1”. For the same compound, the results for the IC50 in series [1] (setting [6]), in series [1] (setting [7]) and in series [2] (setting [8]) were above 100 µM, 1.53 ± 0.27 µM and 0.5 µM, respectively. For the same compound, the “Luciferase Activity Relative to No Drug Control (Avg ± S.E.)” value in series [2] stood at 15 ± 7%.
Take `[N-]=[N+]=NCc1ccc(C(=O)C=C(O)C(=O)O)cc1CN=[N+]=[N-]` [Compound C]: the IC50 in series [1] (setting [6]) was above 100 µM; in series [1] (strand transfer step of integration reaction, listed as 4, read-out: IC50 Strand transfer) it was 0.26 µM and 0.15 µM; in series [2] it was 19 µM. The “Luciferase Activity Relative to No Drug Control (Avg ± S.E.)” value in series [2] was determined as 36 ± 7%.
On to `O=C(C=Cc1ccc(O)c(O)c1)Nc1cccc(C(=O)C=C(O)C(=O)O)c1` [Compound G], for which the IC50 stood at 9 µM in series [1] (setting [6]), 4.7 µM in series [1] (setting [7]) and 2.2 µM in series [2]. The “Luciferase Activity Relative to No Drug Control (Avg ± S.E.)” value in series [2] worked out at 24 ± 8%.
Take `O=C(O)C(O)=CC(=O)c1cccc(OCc2ccccc2)c1` [Compound H]: the half-maximal inhibitory concentration (IC50) in series [1] (3′-processing step of integration reaction, listed as 18, read-out: IC50 3′-Processing) is 65 µM and 100 µM; in series [1] (setting [7]), 0.35 ± 0.13 µM; in series [2], 0.6 µM. Besides, the “Luciferase Activity Relative to No Drug Control (Avg ± S.E.)” value in series [2] is recorded as 14 ± 3%.
For `O=C(C=C(O)c1nnn[nH]1)c1c[nH]c2ccc(F)cc12` [Compound P31, reference compound], the IC50 in series [1] (3′-processing step of integration reaction, listed as 14, read-out: IC50 3′-Processing) turned out to be 82 µM; in series [1] (strand transfer step of integration reaction, listed as 14, read-out: IC50 Strand transfer), 6.56 ± 0.81 µM. Moreover, the “Luciferase Activity Relative to No Drug Control (Avg ± S.E.)” value in series [2] is 61 ± 17%.
As for `[N-]=[N+]=NCc1cc(CN=[N+]=[N-])cc(C(=O)/C=C(\O)C(=O)O)c1` [Compound A, 4-(3,5-bis-azidomethyl-phenyl)-2-hydroxy-4-oxo-but-2-enoic acid], the IC50 in series [1] (setting [6]) was above 100 µM; in series [1] (setting [7]), 2 µM and 2.8 µM; in series [2] (setting [8]), 1.6 µM. Also, the “Luciferase Activity Relative to No Drug Control (Avg ± S.E.)” value in series [2] was found to be 5 ± 6%.
Turning to `O=C(O)C(O)=CC(=O)c1ccc(Oc2ccccc2)cc1` [Compound F], the IC50 in series [1] (setting [6]) was above 100 µM; in series [1] (strand transfer step of integration reaction, listed as 16, read-out: IC50 Strand transfer) it was 7.8 µM and 15 µM. Also, the “Luciferase Activity Relative to No Drug Control (Avg ± S.E.)” value in series [2] is 261 ± 5%.
With `O=C(O)C(O)=CC(=O)c1cccc(C(=O)c2ccccc2)c1` [Compound I], the concentration for half-maximal inhibition (IC50) in series [1] (setting [6]) is above 100 µM; in series [1] (strand transfer step of integration reaction, listed as 19, read-out: IC50 Strand transfer), 2.7 µM and 2.1 µM. Further, in series [2], the “Luciferase Activity Relative to No Drug Control (Avg ± S.E.)” value worked out at 19 ± 2%.
On to `COc1ccc(Cn2nnnc2C(O)=CC(=O)c2c[nH]c3ccc(F)cc23)cc1` [Compound P22, reference compound], for which the IC50 in series [1] (3′-processing step of integration reaction, listed as 11, read-out: IC50 3′-Processing) was 8.1 µM and 5.5 µM; in series [1] (strand transfer step of integration reaction, listed as 11, read-out: IC50 Strand transfer), 2.2 µM and 1.6 µM. In series [2], the “Luciferase Activity Relative to No Drug Control (Avg ± S.E.)” value is given as 98 ± 28%.
Take `O=C(O)C(O)=CC(=O)c1cc(OCc2ccccc2)cc(OCc2ccccc2)c1` [Compound P10, reference compound]: the IC50 in series [4] was 2.5 µM; in series [1] (setting [6]), above 1000 µM; in series [1] (setting [7]), 1.03 ± 0.25 µM; in series [2], 2.3 µM. Further, the “effect on 3′-processing step” value in series [1] (concentrations up to the millimolar range) is “unaffected”. Also, the “IC50 for the strand transfer reaction” value in series [1] (strand transfer) was “in the micromolar range”. The “Luciferase Activity Relative to No Drug Control (Avg ± S.E.)” value in series [2] is 7% and 7 ± 2%.
In the case of `COc1ccc(Cn2nnnc2C(O)=CC(=O)c2c[nH]c3ccc(Cl)cc23)cc1` [Compound P20, reference compound], the IC50 was 7.2 µM and 7.5 µM in series [1] (3′-processing step of integration reaction, listed as 10, read-out: IC50 3′-Processing); 1.28 ± 0.38 µM in series [1] (setting [7]). For the same compound, the “Luciferase Activity Relative to No Drug Control (Avg ± S.E.)” value in series [2] came out at 133 ± 35%.
Take `Cc1cc(C)cc(C(=O)C=C(O)C(=O)O)c1` [Compound E]: the IC50 in series [1] (setting [6]) was above 100 µM. In addition, the IC50 in series [1] (strand transfer step of integration reaction, listed as 15, read-out: IC50 Strand transfer) is 9 µM and 11 µM. Moreover, in series [2], the “Luciferase Activity Relative to No Drug Control (Avg ± S.E.)” value was found to be 99 ± 14% and the “antiviral activity in single cycle assay” value is “did not show antiviral activity; also recorded: showed no antiviral activity”.
In the case of `COc1ccc(Cn2nnnc2C(O)=CC(=O)c2c[nH]c3ccccc23)cc1` [Compound P23, reference compound], the IC50 in series [1] (setting [6]) was above 100 µM; in series [1] (setting [7]), 6.9 µM. Further, the “Luciferase Activity Relative to No Drug Control (Avg ± S.E.)” value in series [2] was found to be 104 ± 25%.
For the compound `O=C(C=C(O)c1nnn[nH]1)c1c[nH]c2ccccc12` [Compound P4, reference compound], the IC50 was above 100 µM in series [1] (setting [6]); 1.9 µM and 2 µM in series [1] (strand transfer step of integration reaction, listed as 6, read-out: IC50 Strand transfer). Further, in series [2], the “Luciferase Activity Relative to No Drug Control (Avg ± S.E.)” value is recorded as 116 ± 27%.
With `[N-]=[N+]=Nc1cccc(C(=O)C=C(O)C(=O)O)c1` [Compound D, 4-(3-azido-phenyl)-2-hydroxy-4-oxo-but-2-enoic acid], the “concentration giving 50% inhibition of cell proliferation” value in series [5] is “approximately 19 μM”. The IC50 in series [1] (setting [6]) was above 100 µM; in series [1] (setting [7]) it was 5.3 µM and 5.2 µM. Further, in series [2], the “Luciferase Activity Relative to No Drug Control (Avg ± S.E.)” value is 137 ± 12%.
